In PubChem BioAssay (NCI):
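48-hour exposure; five concentrations; linearly interpolated endpoints. The concentration for full growth arrest is given as TGI.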

Key:
Experiment in all cases: NCI anticancer screen, dose series, 48 h
[1] = tested on: HOP-62 NSCLC
[2] = tested on: SW-620 colon
[3] = tested on: CCRF-CEM leukemia
[4] = tested on: HT29 colon
[5] = tested on: NCI-H226 lung
[6] = tested on: SF-539 CNS
[7] = tested on: PC-3 prostate
[8] = tested on: MDA-N
[9] = tested on: OVCAR-4 ovarian
[10] = tested on: SK-MEL-28 melanoma
[11] = tested on: MDA-MB-231 breast
[12] = tested on: SK-MEL-5 melanoma
[13] = tested on: HL-60(TB) leukemia
[14] = tested on: OVCAR-3 ovarian
[15] = tested on: HS 578T breast
[16] = tested on: COLO 205 colon
[17] = tested on: LOX IMVI melanoma
[18] = tested on: IGROV1 ovarian

Row | SMILES | TGI [1] [µM] | TGI [2] [µM] | TGI [3] [µM] | TGI [4] [µM] | TGI [5] [µM] | TGI [6] [µM] | TGI [7] [µM] | TGI [8] [µM] | TGI [9] [µM] | TGI [10] [µM] | TGI [11] [µM] | TGI [12] [µM] | TGI [13] [µM] | TGI [14] [µM] | TGI [15] [µM] | TGI [16] [µM] | TGI [17] [µM] | TGI [18] [µM]
1 | O=C(NCC(=O)N1CCCC1C(=O)OC(=O)C1CCCN1C(=O)CNC(=O)OCc1ccccc1)OCc1ccccc1 (configuration not stated) | 77 | > 100 | > 100 | 79.2 | 66.2 | 40.6 | > 100 | > 100 | > 100 | 70.4 | 54.7 | 62.3 | 70.3 | > 100 | > 100 | 33.9 | 36.2 | > 100
2 | CNC(C#N)c1ccc(OC)cc1 (configuration not stated) | – | > 100 | > 100 | > 100 | > 100 | > 100 | > 100 | > 100 | > 100 | > 100 | > 100 | > 100 | > 100 | > 100 | > 100 | > 100 | > 100 | > 100
3 | Nc1ccc(-c2nc3cc(F)ccc3s2)cc1Cl | 46.8 | > 100 | > 100 | > 100 | 5.04 | 45.1 | > 100 | > 100 | > 100 | > 100 | > 100 | > 100 | > 100 | 45.6 | > 90.4 | > 100 | > 100 | 42.9
4 | CC(=O)N(C)c1ccc(Nc2cc(C)[nH]c3ccc4ncnc4c23)cc1 | 23.5 | 22.1 | 34.9 | 34 | 19.5 | 18.6 | 18 | 23.9 | 34 | 36.5 | 30.4 | 17.7 | 18.9 | 27.5 | 35.5 | 16 | 15.9 | 64.4
5 | CCOC(=O)c1c(NC(=O)c2cccs2)sc2c1CCCC2 | 55.3 | > 100 | > 100 | > 100 | > 100 | 57.4 | > 100 | > 100 | > 100 | > 100 | 69.8 | > 100 | > 100 | > 100 | 76.9 | > 100 | > 100 | > 100
6 | CC(C)CC1C(=O)NCCC(NC(=O)C(Cc2ccc(OC(C)(C)C)cc2)NC(=O)OC(C)(C)C)C(=O)NC(Cc2ccccc2)C(=O)NC(Cc2ccccc2)NC1=O (configuration not stated) | 37.7 | 13.6 | 55 | 19.6 | 21.2 | 44.9 | 46.1 | > 100 | 34.6 | 42.4 | 19.9 | 85.9 | 26.9 | 19.9 | > 100 | 11.7 | 19.3 | 31.7
7 | COCC1OC(Sc2ccccc2)C(O)C(OC)C1OC (configuration not stated) | > 100 | > 100 | > 100 | > 100 | > 100 | > 100 | > 100 | > 100 | > 100 | > 100 | > 100 | > 100 | > 100 | > 100 | > 100 | > 100 | > 100 | > 100
8 | COc1ccccc1/C(=N\OCCC(=O)O)c1cccs1 | > 100 | > 100 | > 100 | > 100 | > 100 | > 100 | > 100 | > 100 | > 100 | > 100 | > 100 | > 100 | > 100 | > 100 | > 100 | > 100 | > 100 | –
9 | O=C(O)CC1NC(/C(=C/c2ccccc2)NC(=O)c2ccccc2)OC1=O (configuration not stated) | 37.2 | 42 | 86.6 | > 100 | 98.6 | 44.2 | > 100 | 86.4 | > 100 | 52.4 | 69.7 | 32.3 | 38 | 51.2 | > 100 | 40.6 | 36 | > 100
10 | CN(Cc1cnc2nc(N)nc(N)c2n1)c1ccc(C(=O)NC(CCC(=O)NCCC(P(=O)(O)O)P(=O)(O)O)C(=O)O)cc1 (configuration not stated) | > 100 | > 100 | > 100 | > 100 | > 100 | > 100 | > 100 | > 100 | > 100 | > 100 | > 100 | > 100 | > 100 | > 100 | > 100 | > 100 | > 100 | > 100
11 | C[N+](CCCl)(CCCl)Cc1cccc2cccc([N+](=O)[O-])c12 | > 100 | > 100 | > 100 | > 100 | > 100 | > 100 | > 100 | > 100 | > 100 | > 100 | > 100 | > 100 | > 100 | > 100 | > 100 | > 100 | > 100 | > 100
12 | Cc1c([N+](=O)[O-])ccc2c(NCCCN(C)C)ccnc12 | > 100 | 55.6 | > 100 | 34.1 | 72.5 | 31.2 | 41.6 | 28.4 | 41 | 54.5 | 56.6 | 29.6 | > 100 | 50.8 | 74.1 | 24.7 | 30.9 | 52.7
13 | COc1ccc(N2C(=O)C(=O)N(c3ccccc3[N+](=O)[O-])C2=S)cc1 | > 100 | > 100 | > 100 | > 100 | > 100 | 88.3 | > 100 | 74.2 | 58.5 | > 100 | > 100 | 32.5 | > 100 | – | 84 | 44.4 | 32.4 | > 100
14 | C=C1C(=O)C[C@H]2C(=C)C(=O)O[C@@H]2C2C1CC[C@@]2(C)O (some centres not stated) | > 100 | > 100 | > 100 | 41.1 | 54.3 | > 100 | > 100 | 77.8 | – | 85.5 | 75.2 | > 100 | > 100 | 35.8 | > 100 | 54.8 | 68.8 | > 100
15 | N=C1/C(=C/c2ccc(F)cc2)C(=O)N=C2SC=NN12 | > 100 | > 100 | > 100 | > 100 | > 100 | > 100 | > 100 | > 100 | > 100 | > 100 | > 100 | > 100 | > 100 | > 100 | > 100 | > 100 | > 100 | > 100
16 | COc1cc(OC)c(-c2ccc(OCc3ccccc3)c3c(OC)cc(C)cc23)c2c1C(C)=N[C@H](C)C2 | 4.16 | 4.68 | 4.36 | 3.84 | 5.52 | 4.32 | 3.9 | 4 | 4.01 | 4.38 | 4.18 | 4.1 | 4.4 | 4.08 | 4.41 | 4.5 | 3.65 | 3.57
17 | CC(C)(C)NC(NC(C)(C)C)=C(/C=C(/Cl)[N+](=O)[O-])[N+](=O)[O-] | > 100 | – | > 100 | > 100 | > 100 | > 100 | > 100 | 59.5 | > 100 | > 100 | > 100 | > 100 | 53.5 | 49.7 | > 100 | 60.3 | > 100 | > 100
18 | O=c1cc(N2CCOCC2)[nH]c(=O)n1-c1ccc(F)cc1 | > 100 | > 100 | > 100 | > 100 | > 100 | > 100 | > 100 | > 100 | > 100 | > 100 | > 100 | – | > 100 | > 100 | > 100 | > 100 | > 100 | > 100
19 | O=C1NC(=O)C(c2c[nH]c3ccccc23)=C1c1cnc[nH]1 | > 100 | > 100 | > 100 | > 100 | 9.4 | > 100 | > 100 | > 100 | > 100 | > 100 | > 100 | 78.1 | > 100 | > 100 | > 100 | > 100 | > 100 | > 100
20 | CC(=O)c1ccc(NCc2cc(O)ccc2O)cc1 | 42 | > 100 | > 100 | > 100 | > 100 | 33 | 41.3 | 43.5 | 34.4 | > 100 | 73.8 | 57.2 | 76.9 | 19.8 | > 100 | 43.8 | 74.3 | > 100
21 | CCN(CC)CCC(=O)/C=C/c1ccccc1 | 54.5 | 23.4 | > 47.2 | 12.4 | 44.9 | 37.5 | 27.3 | 26.4 | > 94.4 | 30.8 | 28.9 | 44.8 | > 100 | 12.1 | 39.9 | 18 | 7.16 | 35.5
22 | N#Cc1c(-c2ccc(Cl)cc2)c2c([nH]c1=O)-c1ccccc1SC2 | > 100 | > 100 | 88.6 | > 100 | > 100 | 68 | > 100 | > 100 | > 100 | > 100 | > 100 | > 100 | 56.7 | 92.7 | > 100 | 50.3 | 73.9 | > 100
23 | CCCn1c2ccccc2c2ccc3c(c21)C(=O)C=CC3=O | > 10 | 3.27 | 0.47 | > 10 | > 10 | > 6.41 | > 8.03 | 6.43 | 4.07 | > 3.16 | 5.08 | > 10 | > 2.27 | 4.88 | > 10 | 5.17 | > 10 | > 10
24 | O=C(O)CC(CC(=O)O)C(=O)O | > 100 | > 100 | > 100 | > 100 | > 100 | > 100 | > 100 | > 100 | > 100 | > 100 | > 100 | > 100 | > 100 | > 100 | > 100 | > 100 | > 100 | > 100
25 | CC1(c2cccs2)CC(c2cccs2)=C(C#N)C(=C(C#N)C#N)N1 (configuration not stated) | 39.7 | 43.7 | 27.9 | 34.4 | 90 | 70 | 29.8 | 31.1 | 32.3 | 50.2 | 50.6 | 28.8 | 33.1 | 32.1 | 69.5 | 39.9 | 32.4 | 33.4
26 | C/C(=N\NC(=S)N1CCCCC1)c1nc2ncccc2[nH]1 | > 100 | > 100 | 17.2 | > 100 | 26.7 | 21.3 | > 100 | 47.9 | > 100 | 37.7 | > 100 | 12.3 | 19.1 | > 100 | > 100 | > 100 | > 100 | > 100
